Source: PubChem BioAssay AID179 (DTP/NCI, 2004)
“And” between values parts separate entries of the source, which are not always exact repeats. Equal values may be shown once. The source made the active and inactive calls.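 How the source made its calls: active means compounds giving half or more protection of infected cells from virus-caused growth loss, again on retest; inactive means the rest.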 Where a SMILES comes first, the peptide text is derived from it. Side-chain parts run from the residue outwards. [ ]: non-standard residue; d: D form. The star is where a group is joined. ξ: configuration not given here. NMeF = CN[C@@H](Cc1ccccc1)C(=O)O; NMeN = CN[C@@H](CC(N)=O)C(=O)O; NMeV = CN[C@H](C(=O)O)C(C)C; ξNMeV = CNC(C(=O)O)C(C)C; Cbz = O=C(OCc1ccccc1)*; Boc = CC(C)(C)OC(=O)*; ξNMeA = CNC(C)C(=O)O; ξV = CC(C)C(N)C(=O)O

Test system: CEM cells HIV-1 protection, formazan growth assay
Experiment: NCI AIDS Antiviral Assay
Details: for IC50: measured here: growth of uninfected CEM cells
In short: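 Screen of anti-HIV-1 activity in human CEM cells using a formazan-based growth measurement at five drug concentrations. Hits with 50% or greater protection were repeated, and confirmation required reproducible complete protection.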

SMILES	EC50 [µM]	IC50	outcome
O=c1[nH]c2cn(-c3ccccc3)nc2c(=O)n1O	> 200	3.55 µM	–
CC(=O)OCC1OC(n2c(C)c(N=Nc3ccc(C)cc3)c(C)c(C#N)c2=S)C(OC(C)=O)C(OC(C)=O)C1OC(C)=O (configuration not stated)	> 200	> 200 µM	–
Nc1ncc(/C=C/CNC(=O)c2ccc[nH]2)[nH]1	> 1070	155 µM	–
CC1=C(O)C(=O)C(c2c(C)cc(C)c(Br)c2C)=C(O)C1=O	> 115	15.5 µM	–
CC(C)CC(NC(=O)OCc1ccccc1)C(=O)NCCCCC(NC(=O)C(CCCCNC(=O)C(CC(C)C)NC(=O)OCc1ccccc1)NC(=O)C(CCCCNC(=O)C(CC(C)C)NC(=O)OCc1ccccc1)NC(=O)C(CCCCNC(=O)C(CC(C)C)NC(=O)OCc1ccccc1)NC(=O)OC(C)(C)C)C(=O)O (configuration not stated) (Boc-K([Leu-Cbz])K([Leu-Cbz])K([Leu-Cbz])K([Leu-Cbz])-OH; configuration not given here)	> 100	> 100 µM	–
CC(C)(CCc1nc2ccccc2[nH]1)C(=O)O	> 200	> 200 µM	–
C=C1[C@H]2CC[C@H]3C45CO[C@@H](CC4=O)C(C)(C)C5=C(O)C(=O)C3(C2)[C@@H]1OC(C)=O	> 18.6	> 18.6 µM	–
CCOP(=O)(OCC)/C(C#N)=C/c1ccc(C(F)(F)F)cc1	> 107	57.5 µM	–
CCC(=C(C#N)C#N)c1cc(OC)c(OC)c(OC)c1	> 26.3	> 26.3 µM	–
O=C(NNC(=O)c1ccc([N+](=O)[O-])cc1)c1ccc([N+](=O)[O-])cc1	> 200	> 200 µM	–
CCN(c1ccccc1)[C@H]1C(=O)N(c2ccc([N+](=O)[O-])cc2)[C@H]1c1ccc(OC)cc1	–	–	inactive
COc1ccc(C2S/C(=C\c3cccc(O)c3)C(=O)N2NC(=O)Cc2ccccc2)cc1 (configuration not stated)	> 112	> 112 µM	–
Cc1nc(N)[nH]c(=O)c1CCCNc1ccc(C(=O)NC(CCC(=O)O)C(=O)O)cc1 (configuration not stated)	> 200	2.75 µM	–
Cc1ccc(C)c2c1CC(Cc1ccccc1C(=O)O)C2=O (configuration not stated)	> 200	158 µM	–
COc1nc(N)c(N=CC(OC(C)=O)C(OC(C)=O)C(COC(C)=O)OC(C)=O)c(=O)n1C (configuration not stated)	> 200	–	–
S=C1NNC2(C(=S)N1)c1ccccc1-c1ccccc12	> 200	87.1 µM	–
Cc1ccc2c(c1)C(=O)N1CCC[C@H]1C=N2	> 200	3.63 µM	–
CN(C)CCCn1c(-c2cc(C(C)(C)C)c(O)c(C(C)(C)C)c2)csc1=Nc1ccccc1	> 200	3.55 µM	–
CC(=O)CC(=O)CCCC(=O)Nc1ccc(Cl)cc1C	–	–	inactive
O=C1C2C(C(=O)N1c1ccccc1)C1(c3ccccc3)OC2(c2ccccc2)c2ccccc21 (configuration not stated)	–	–	inactive
CS(=O)(=O)c1nc(Cl)c(Cl)c(C#N)c1Cl	> 200	0.457 µM	–
O=C(/C=C/c1ccc(Cl)cc1)c1cccs1	> 200	1.23 µM	–

SMILES	EC50 [µM]	IC50	outcome
O=C1CCC2SC1CCC2=O	> 200	> 200 µM	–
C=C1C(=O)C=C2C=C3C(=O)C(C)(C)C[C@]3(O)C12C (some centres not stated)	> 1020	0.389 µM	–
[N-]=[N+]=NC1C2CC3C4CC5CC3[C@H](C2)C(C5)C41 (some centres not stated)	> 81.3	> 81.3 µM	–
O=C(O)c1ccc(S(=O)(=O)c2ccc(C(=O)O)c(C(=O)O)c2)cc1C(=O)O	> 200	191 µM	–
N#CC1=C(N)N(c2ccccc2)C(c2ccco2)C1(C#N)C#N (configuration not stated)	> 200	10 µM	–
CS(=O)(=O)C1S(=O)(=O)OCCOS1(=O)=O	> 891	> 891 µM	–
Nc1ccc(C(=O)CC2(O)C(=O)Nc3c(Cl)cc(Cl)cc32)cc1 (configuration not stated)	> 33.9	18.6 µM	–
Cc1cn(C2CC3OP(=O)(C(C)(C)C#N)OCC3O2)c(=O)[nH]c1=O (configuration not stated)	> 708	447 µM	–
N#CC1=C(S)N(C2OC(CO)C(O)C(O)C2O)C(c2ccccc2)=CC1c1ccccc1 (configuration not stated)	> 200	51.3 µM	–
C[C@H](CCC(=O)O)[C@H]1CC[C@H]2[C@@H]3C(=O)C[C@@H]4C[C@H](O)CC[C@]4(C)[C@H]3C[C@H](O)[C@]12C	> 200	> 200 µM	–
O=C(NN1C(=O)C(Cl)C1c1ccccc1Cl)c1ccccc1O (configuration not stated)	> 14.8	> 14.8 µM	–
[N-]=[N+]=C1C(=O)C2CC3CC(C2)CC1C3	> 191	> 191 µM	–
[Cl][Ni+2][Cl].[NH-]CCN1CC1	> 200	40.7 µM	–
C[C@@H]1CC(O)C2(O)C13CC(OC(=O)[C@@H]3O)C1(O)C(=O)OCC12C (some centres not stated)	> 759	> 759 µM	–
CNc1ccc(C)cc1S(=O)(=O)c1ccc(OC)cc1	> 200	95.5 µM	–
CC(=O)OC1=C2CC3(C)OC(=O)CC(C)(C)C3=CC=C2C=C(C(C)C)C1=O (configuration not stated)	–	–	inactive
Brc1cnc2nsnc2c1	–	–	inactive
CC(=O)C1=CSC2[C@H](NC(=O)Cc3ccccc3)C(=O)N2C1C(=O)OC(c1ccccc1)c1ccccc1 (some centres not stated)	> 25.7	15.8 µM	–
CN1C/C(=C\c2ccccc2[N+](=O)[O-])C(=O)/C(=C/c2ccccc2[N+](=O)[O-])C1	> 2	0.166 µM and 0.0871 µM	–
COC(=O)C1=CCC2c3[nH]c4ccccc4c3CCN2C1 (configuration not stated)	> 91.2	> 91.2 µM	–
O=c1oc2ccccc2c(O)c1C(c1ccc2c(c1)OCO2)N1CCOCC1 (configuration not stated)	> 200	> 100 µM	–
Clc1ccc2c(Cl)ncnc2c1I	> 30.9	7.41 µM	–

SMILES	EC50 [µM]	IC50	outcome
O=C(/C=C/c1ccc(O)c(O)c1)O[C@@H](C(=O)O)[C@@H](OC(=O)/C=C/c1ccc(O)c(O)c1)C(=O)O	> 200	17 µM	–
COC(=O)C1(Cc2ccc3c(c2)CCC3)Cc2ccccc2C1O (configuration not stated)	> 200	26.9 µM	–
CCOC(=O)C(=O)N1C(C)=C(C(=O)OCC)CC(C(=O)OCC)=C1C	> 200	> 200 µM	–
O=C(O)C12C=CC(C1)c1ccccc12 (configuration not stated)	> 251	> 251 µM	–
CCCCCCC(=O)CC(=O)C(=O)Nc1ccccc1C	> 25.1	> 25.1 µM	–
COC12OCC(OC1OCc1ccccc1)C1OC(C)(C)OC12 (configuration not stated)	> 200	105 µM	–
NC(N)=N/N=C/c1c(Cl)nc2sccn12	> 200	38 µM	–
COc1ccc(OC(C)C(=O)O)c2c1CCCC2=O (configuration not stated)	–	–	inactive
O=C(O)CCSCCCCCCCCCCCCSCCC(=O)O	> 91.2	> 91.2 µM	–
CCCCCCC1CCC2CCCC(C)N12 (configuration not stated)	> 162	> 162 µM	–
CNc1ncnc2c1nc(NC1CCCC1)n2C1OC(CO)C(O)C1O (configuration not stated)	> 200	> 200 µM	–
CCCc1cc(=O)oc2c3c(c4c(c12)OC(C)(C)C=C4)O[C@H](C)C(C)[C@@H]3O (some centres not stated)	0.331	25.1 µM	–
CN(C)Cc1cc(CN(C)C)cc(CN(C)C)c1	> 200	> 200 µM	–
S=P1(Oc2ccccc2)OCCO1	> 617	> 617 µM	–
Clc1cccc(-n2cccc2)c1	> 200	> 200 µM	–
[N-]=[N+]=Nc1c([N+](=O)[O-])c(Cl)nc2ccccc12	> 20	10 µM	–
O=C1OCC2(CO1)CC1C=CC2C1 (configuration not stated)	> 200	> 200 µM	–
c1ccc(C2=NOC3(c4ccccc4)CC(c4cccs4)Sc4ccccc4N23)cc1 (configuration not stated)	> 200	70.8 µM	–
CCC1(c2ccccc2)OCC(=O)NC1=O (configuration not stated)	> 200	> 200 µM	–
COc1cc2c(cc1OC)C(c1ccccc1CCCCl)=NCC2	> 200	75.9 µM	–
N#Cc1ccc(Cc2ccccn2)cc1Cl	–	–	inactive
COC(=O)C1=CC2C=CC(C1C(=O)OC)C1C(C(=O)OC)=C(C(=O)OC)C(C(=O)OC)=C(C(=O)OC)C21OC (configuration not stated)	–	–	inactive

SMILES	EC50 [µM]	IC50	outcome
C[N+]12CC[N+](C)(CC1)CC2	> 832	> 832 µM	–
CCCCCCCCC1=C(OC)C(=O)c2c(C)cc(Cl)nc2C1=O	–	–	inactive
COC(=O)C(C)N(C)C(=O)[C@H](CC(N)=O)N(C)C(=O)[C@@H]1CCCN1C(=O)[C@H](C(C)C)N(C)C(=O)C(C(C)C)N(C)C(=O)[C@H](Cc1ccccc1)N(C)C(=O)C(NC(=O)OC(C)(C)C)C(C)C (some centres not stated) (Boc-[ξV][NMeF][ξNMeV][NMeV]P[NMeN][ξNMeA]-OMe)	> 100	17.8 µM	–
CCC1(CC2CCCN(C)C2)c2ccccc2Sc2ccccc21 (configuration not stated)	> 200	11 µM	–
CCn1c(-c2ccccc2)cs/c1=N\C(P(=O)(O)O)P(=O)(O)O	> 200	> 200 µM	–
CCNc1ncnc2sc(SCc3ccccc3)nc12	> 200	> 200 µM	–
O=C1c2cccc3cccc(c23)C(=O)N1CCCN(CCO)CCO	> 200	12.3 µM	–
C[C@H]1C2=CC(=O)CC[C@@](C)(O2)[C@H]2CC[C@]3(C)[C@@H](O)CC[C@H]3[C@H]12	> 589	234 µM	–
COC(=O)c1cc(C)ccc1CC(Cc1cccc(C)c1)C(=O)OC (configuration not stated)	> 200	> 200 µM	–
O=C(/C=C/c1ccc(Cl)cc1)Oc1ccc(/C=C2\CCCCC2=O)cc1	> 200	42.7 µM	–
CC(C)CN(CC(C)C)C(=O)C1CCCC[C@@H]1C(=O)O (some centres not stated)	> 891	> 891 µM	–
Cc1cc(Br)c2nsnc2c1[N+](=O)[O-]	> 26.3	2.57 µM	–
COc1ccc(NC2=NCCO2)c2c1CCCC2	> 200	77.6 µM	–
NS(=O)(=O)c1ccc(Nc2c3ccccc3nc3c(C(=O)NC(CO)(CO)CO)cccc23)cc1	> 200	3.39 µM	–
CCCCCCCCCC(=O)CC(=O)c1c(O)cc(O)cc1O	> 200	26.3 µM	–
CCCCN(CCCC)C1=Nc2ccccc2-n2c(nnc2C(=O)OCC)C1	> 200	41.7 µM	–
COC(=O)[C@]1(C)CCC[C@]2(C)c3cc(Br)c(C(C)C)cc3CC[C@H]12	> 100	> 100 µM	–
C=CCNC(=S)N/C=C\c1c(C(=O)O)cc([N+](=O)[O-])cc1[N+](=O)[O-]	> 200	> 100 µM	–
CCN(c1ccccc1)c1cc(=O)nc2ccccn12	> 200	> 200 µM	–
O=C1c2ccccc2C(=O)N1N1C(=O)C2C3CCC(O3)C2C1=O (configuration not stated)	> 200	95.5 µM	–
